Tests used:
5-HT2A (h) = biological target: T1, 5-HT2A (h) (Homo sapiens, UniProt P28223); experiment: Eurofins panel: 5-HT2A (h) (agonist radioligand); type: binding; conditions: 1.0E-05 M; 5-HT2A (h) (agonist radioligand)
T1 construct: purchased Eurofins (contract screening, CNS SafetyScreen panel)

5-HT2C (h) = biological target: T2, 5-HT2C (h) (Homo sapiens, UniProt P28335); experiment: Eurofins panel: 5-HT2C (h) (agonist radioligand); type: binding; conditions: 1.0E-05 M; 5-HT2C (h) (agonist radioligand)
T2 construct: purchased Eurofins (contract screening, CNS SafetyScreen panel)
T2 sequence (P28335 33-458): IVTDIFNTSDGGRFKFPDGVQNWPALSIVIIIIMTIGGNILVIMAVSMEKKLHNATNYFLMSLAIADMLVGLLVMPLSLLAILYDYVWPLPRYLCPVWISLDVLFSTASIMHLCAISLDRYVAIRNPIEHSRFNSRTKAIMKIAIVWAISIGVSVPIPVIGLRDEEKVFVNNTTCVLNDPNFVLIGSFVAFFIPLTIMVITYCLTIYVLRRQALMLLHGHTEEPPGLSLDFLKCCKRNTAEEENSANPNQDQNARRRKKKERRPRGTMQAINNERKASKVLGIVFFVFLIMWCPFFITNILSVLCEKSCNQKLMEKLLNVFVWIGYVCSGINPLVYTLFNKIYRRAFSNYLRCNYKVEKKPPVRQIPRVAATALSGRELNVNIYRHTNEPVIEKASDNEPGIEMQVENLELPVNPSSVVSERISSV

SKCa channel = conditions: compound concentration 1.0E-05 M
beta2 (h) = beta2 (h) (Homo sapiens, UniProt P07550); experiment: Eurofins panel: beta2 (h) (antagonist radioligand); conditions: 1.0E-05 M
Sequence of beta2 (h) (P07550 whole entry): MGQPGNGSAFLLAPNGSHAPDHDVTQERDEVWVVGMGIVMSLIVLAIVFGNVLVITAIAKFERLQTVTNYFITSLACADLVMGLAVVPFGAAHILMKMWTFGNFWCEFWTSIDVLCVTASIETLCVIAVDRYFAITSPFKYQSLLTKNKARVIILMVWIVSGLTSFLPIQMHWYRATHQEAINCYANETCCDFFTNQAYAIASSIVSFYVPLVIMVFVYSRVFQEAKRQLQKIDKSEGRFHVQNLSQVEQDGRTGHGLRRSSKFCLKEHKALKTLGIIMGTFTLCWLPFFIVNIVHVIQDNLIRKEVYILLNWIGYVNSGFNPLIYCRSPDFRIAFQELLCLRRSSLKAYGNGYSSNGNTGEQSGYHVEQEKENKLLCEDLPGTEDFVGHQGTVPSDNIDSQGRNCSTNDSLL

T1 sequence (P28223 whole entry): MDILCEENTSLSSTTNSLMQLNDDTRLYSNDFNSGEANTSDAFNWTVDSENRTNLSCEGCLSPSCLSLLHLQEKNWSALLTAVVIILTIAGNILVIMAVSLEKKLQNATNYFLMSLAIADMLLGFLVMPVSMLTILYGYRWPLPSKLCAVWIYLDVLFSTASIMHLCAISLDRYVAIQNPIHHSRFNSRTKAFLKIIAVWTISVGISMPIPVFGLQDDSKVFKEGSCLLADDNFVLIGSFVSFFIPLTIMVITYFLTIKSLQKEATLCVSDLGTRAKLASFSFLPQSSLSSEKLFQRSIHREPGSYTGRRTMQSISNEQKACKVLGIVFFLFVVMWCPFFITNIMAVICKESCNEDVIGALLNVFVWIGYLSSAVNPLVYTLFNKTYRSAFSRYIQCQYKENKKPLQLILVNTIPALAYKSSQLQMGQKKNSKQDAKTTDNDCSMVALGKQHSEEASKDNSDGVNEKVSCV

Fc1nc(N2CCOCC2)ccc1-c1cc2ccccc2[nH]1 [Compound 75, 4-(6-Fluoro-5-(1H-indol-2-yl)pyridin-2-yl)morpholine]
% Inhibition, Specific binding (5-HT2A (h)): 1.045% | % Inhibition, Specific binding (5-HT2C (h)): 5.817% | % Inhibition, Specific binding (SKCa channel): 0.9001% | % Inhibition, Specific binding (beta2 (h)): 4.9424%
